Measured values: patent US20240391899A1, “POTENT AND SELECTIVE INHIBITORS OF IRAK4” (Dana-Farber Cancer Institute, Inc., priority 2021, published 2024)

How the values were obtained:
BCWM.1 = experiment: CellTiter-Glo Luminescent cell viability assay, BCWM.1; assay type: cell-based; conditions: BCWM1, BCWM.1 cell line, 72 hours at 37° C., read-out: ED50 (the source's name)
Experimental: (§1) The CellTiter-Glo® Luminescent cell viability assay (Promega, Madison WI) was used to assess the dose-response of inhibitors alone or in combination. Cells were seeded into 384 well plates with the EL406 Combination Washer Dispenser (BioTek Instruments, Inc.) and inhibitors were injected into culture media with the JANUS Automated Workstation (PerkinElmer Inc., Waltham MA). Cells were incubated with inhibitors for 72 hours at 37° C. Luminescent measurements to assess cell viability were performed using the 2104 Envision® Multilabel Reader (PerkinElmer Inc.). Drug interactions were assessed by CalcuSyn 2.0 software (Biosoft, Cambridge UK) based on Chou TC.

OCI-Ly7 = experiment: CellTiter-Glo Luminescent cell viability assay, OCI-Ly7; assay type: cell-based; conditions: Homo sapiens, OCI-Ly7 cell line, 72 hours at 37° C., read-out: ED50 (the source's name)
Experimental: as §1

OCI-Ly19 = experiment: CellTiter-Glo Luminescent cell viability assay, OCI-Ly19; assay type: cell-based; conditions: Homo sapiens, OCI-Ly19 cell line, 72 hours at 37° C., read-out: ED50 (the source's name)
Experimental: as §1

HBL-1 = experiment: CellTiter-Glo Luminescent cell viability assay, HBL-1; assay type: cell-based; conditions: HBL1, HBL-1 cell line, 72 hours at 37° C., read-out: ED50 (the source's name)
Experimental: as §1

RPMI-8226 = experiment: CellTiter-Glo Luminescent cell viability assay, RPMI-8226; assay type: cell-based; conditions: Homo sapiens, RPMI-8226 cell line, 72 hours at 37° C., read-out: ED50 (the source's name)
Experimental: as §1

JeKo-1 = experiment: CellTiter-Glo Luminescent cell viability assay, JeKo-1; assay type: cell-based; conditions: Homo sapiens, JeKo-1 cell line, 72 hours at 37° C., read-out: ED50 (the source's name)
Experimental: as §1

MWCL-1 = experiment: CellTiter-Glo Luminescent cell viability assay, MWCL-1; assay type: cell-based; conditions: MWCL-1 cell line, 72 hours at 37° C., read-out: ED50 (the source's name)
Experimental: as §1

SU-DHL-6 = experiment: CellTiter-Glo Luminescent cell viability assay, SU-DHL-6; assay type: cell-based; conditions: Homo sapiens, SU-DHL-6 cell line, 72 hours at 37° C., read-out: ED50 (the source's name)
Experimental: as §1

TMD8 = experiment: CellTiter-Glo Luminescent cell viability assay, TMD8; assay type: cell-based; conditions: Homo sapiens, TMD8 cell line, 72 hours at 37° C., read-out: ED50 (the source's name)
Experimental: as §1

IRAK1 = target: T1, IRAK1 (Homo sapiens, UniProt P51617); experiment: IRAK1 enzymatic assay (Adapta Universal Kinase Assay, ThermoFisher); assay type: biochemical; conditions: 60 minutes at room temperature
T1 construct: purchased ThermoFisher
Experimental: To measure the IC50 values of the compounds herein against IRAK1, the Adapta Universal Kinase Assay (ThermoFisher) was used. Briefly, 100 nL of different concentrations of the compounds in 100% DMSO were added to each well of a 384-well plate (Corning Cat. #4512). 2.4 μL of 30 mM HEPES, 2.5 μL of 4×ATP solution (in water), and 5 μL of 2×IRAK1/Histone H3 (1-20) peptide mixture (prepared in 50 mM HEPES pH 7.5, 0.01% BRIJ-35, 10 mM MgCl2, 1 mM EGTA) were added to each well. The plate was shaken for 30 seconds and centrifuged for 1 minute at 1000×g. The plate was then incubated at room temperature for 60 minutes. 5 μL of Detection Mix was added to each well. The plate was shaken for 30 seconds and centrifuged for 1 minute at 1000×g. The plate was then incubated at room temperature for 60 minutes. The plate was subsequently read on a fluorescence plate reader, and the emissions ratio was calculated to determine the ratio of ATP to ADP. Emissions Ratio=AF647 Emission (665 nm)/Europium Emission (615 nm).

IRAK4 = target: T2, IRAK4 (Homo sapiens, UniProt Q9NWZ3); experiment: IRAK4 enzymatic assay (Z'-LYTE, ThermoFisher); assay type: biochemical; conditions: 60 minutes at room temperature
T2 construct: purchased ThermoFisher
T2 sequence (Q9NWZ3 1-460): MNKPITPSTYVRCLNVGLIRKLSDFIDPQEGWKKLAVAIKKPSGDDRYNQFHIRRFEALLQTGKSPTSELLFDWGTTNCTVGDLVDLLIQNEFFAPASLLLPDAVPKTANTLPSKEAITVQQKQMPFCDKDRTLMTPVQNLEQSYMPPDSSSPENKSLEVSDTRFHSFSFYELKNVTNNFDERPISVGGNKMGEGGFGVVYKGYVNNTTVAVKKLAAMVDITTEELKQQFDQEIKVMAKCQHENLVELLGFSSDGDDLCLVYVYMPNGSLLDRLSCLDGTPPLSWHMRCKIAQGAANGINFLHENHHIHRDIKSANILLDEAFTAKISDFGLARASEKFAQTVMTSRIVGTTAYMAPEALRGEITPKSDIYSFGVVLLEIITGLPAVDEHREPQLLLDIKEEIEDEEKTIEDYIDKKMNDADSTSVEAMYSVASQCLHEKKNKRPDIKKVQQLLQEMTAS
Experimental: To measure the IC50 values of compounds herein against IRAK4, a Z′-LYTE assay (ThermoFisher) was used. Briefly, 2.5 μL of different concentrations of the compounds in 1% DMSO were added to 2.4 μL kinase buffer (50 mM HEPES pH 7.5, 0.01% BRIJ-35, 10 mM MgCl2, 1 mM EGTA) in each well of a 384-well plate (Corning Cat. #3676). 5 μL of 2×IRAK4/Ser/Thr 07 mixture (prepared in 50 mM HEPES pH 7.5, 0.01% BRIJ-35, 10 mM MnCl2, 2 mM DTT, and 0.02% NaN3) and 2.5 μL of 4×ATP solution (4×ATP, 50 mM HEPES, pH 7.5, 0.01% BRIJ-35, 10 mM MgCl2, 1 mM EGTA) were added to each well. The plate was shaken for 30 seconds, and then incubated at room temperature for 60 minutes. 5 μL of a 1:100000 dilution of Development Reagent A was added to each well. The plate was shaken for 30 seconds and incubated for 60 minutes at room temperature. The plate was subsequently read on a fluorescence plate reader, and the emissions ratio was calculated to determine the ratio of Ser/Thr 07 phosphorylated by the reaction. Emissions Ratio=Coumarin Emission (443 nm)/Flourescein Emission (520 nm).

Ramos = experiment: CellTiter-Glo Luminescent cell viability assay, Ramos; assay type: cell-based; conditions: Homo sapiens, Ramos cell line, 72 hours at 37° C., read-out: ED50 (the source's name)
Experimental: as §1

multiple cell lines = experiment: Cellular IRAK4 inhibitory activity screened across multiple cell lines; assay type: cell-based
Experimental: as §1, with “TC. Cellular IRAK4 inhibitory activities of compound 015 and two commercial IRAK4 inhibitors, CA-4948 and PF06650833, were screened across multiple cell lines.” for “TC.”

T1 sequence (P51617 whole entry): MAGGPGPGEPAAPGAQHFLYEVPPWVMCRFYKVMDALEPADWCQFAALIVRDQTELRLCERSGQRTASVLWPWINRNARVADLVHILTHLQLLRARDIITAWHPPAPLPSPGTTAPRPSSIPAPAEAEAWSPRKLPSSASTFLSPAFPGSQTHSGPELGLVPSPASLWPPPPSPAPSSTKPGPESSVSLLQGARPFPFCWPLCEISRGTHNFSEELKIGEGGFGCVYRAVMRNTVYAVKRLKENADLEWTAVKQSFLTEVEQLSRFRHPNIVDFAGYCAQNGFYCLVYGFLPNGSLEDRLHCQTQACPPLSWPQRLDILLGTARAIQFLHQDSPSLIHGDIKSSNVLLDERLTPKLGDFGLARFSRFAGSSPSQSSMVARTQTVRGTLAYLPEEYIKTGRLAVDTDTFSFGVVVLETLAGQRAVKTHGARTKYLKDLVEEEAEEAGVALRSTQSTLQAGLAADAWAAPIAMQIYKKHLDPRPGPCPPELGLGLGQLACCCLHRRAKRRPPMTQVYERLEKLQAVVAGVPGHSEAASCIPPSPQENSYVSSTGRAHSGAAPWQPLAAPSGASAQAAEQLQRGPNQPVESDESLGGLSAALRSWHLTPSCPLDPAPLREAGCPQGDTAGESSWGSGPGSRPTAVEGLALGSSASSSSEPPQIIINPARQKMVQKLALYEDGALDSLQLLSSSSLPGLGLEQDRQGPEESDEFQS

EC50 (OCI-Ly7) [µM]	EC50 (OCI-Ly19) [µM]	EC50 (RPMI-8226) [µM]	EC50 (SU-DHL-6) [µM]	IC50 (IRAK1) [µM]	IC50 (IRAK4) [µM]	EC50 (Ramos) [µM]	SMILES	EC50 (BCWM.1) [µM]	EC50 (HBL-1) [µM]	EC50 (JeKo-1) [µM]	EC50 (MWCL-1) [µM]	EC50 (TMD8) [µM]	Potency compared with CA-4948 and PF06650833 (multiple cell lines)
13	2.2	14	8.69	–	–	–	Cc1cc(-c2nc(C(=O)Nc3cc4oc(N5CCOCC5)nc4nc3N3CC[C@@H](O)C3)co2)ccn1 [CA-4948]	1.99	11.1	6.57	11.9	9.37	–
3.11	1.22	6.78	1.72	0.45	0.009	0.362	Cc1ccc(-n2nc(C3CCN(C(C)C)CC3)cc2NC(=O)c2cccc(-c3cnn(CC(N)=O)c3)n2)nc1 [Compound 015, 6-(1-(2-amino-2-oxoethyl)-1H-pyrazol-4-yl)-N-(3-(1-isopropylpiperidin-4-yl)-1-(5-methylpyridin-2-yl)-1H-pyrazol-5-yl)picolinamide]	3.33	2.2	6.26	6.92	3.92	more potent in most cell lines
9.8	5.87	80.5	–	–	–	28.7	CC[C@@H]1[C@H](F)C(=O)N[C@@H]1COc1nccc2cc(C(N)=O)c(OC)cc12 [PF06650833]	11	14.8	–	18.3	24.1	–
